Data: patent US6472348B1, “Pyridone derivatives and herbicides” (Kumiai Chemical Industry Co., Ltd., priority 1996, dated 2002)

How the values were obtained:
Format in all cases: in vivo
soybean (Gl) = assay: Test Example 6: crop plant selectivity by upland field soil treatment (soybean), phytotoxicity; set-up: scale not given here; settings: 21st day after application
Outline: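 Seeds are sown in sand and covered with soil. The soil is treated with test compound. Pots are kept in a greenhouse. Weed control and soybean damage are rated visually 21 days after application.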

barnyardgrass (Ec) [1] = assay: Test Example 2: herbicidal effects by upland field soil treatment; settings: 100 g of the active ingredient per 10 ares;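 also: grade of growth control; 5 = at least 90%; 4 = 70 to 90%; 3 = 50 to 70%; 2 = 30 to 50%; 1 = 10 to 30%; 0 = under 10%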
From the text: (§1) (Test on Herbicidal Effects by Upland Field Soil Treatment)

pale smartweed (Po) [2] = assay: as above; settings: 100 g of the active ingredient per 10 ares
From the text: as §1

[3] = tested on: common lambsquarters (Ch); assay: as above; settings: 100 g of the active ingredient per 10 ares
From the text: as §1

slender amaranth (Am) = assay: as above; settings: 100 g of the active ingredient per 10 ares;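 also: grade of growth control; 5 = at least 90%; 4 = 70 to 90%; 3 = 50 to 70%; 2 = 30 to 50%; 1 = 10 to 30%; 0 = under 10%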
From the text: as §1

barnyardgrass (Ec) [4] = assay: Test Example 3: herbicidal effects by upland field foliage treatment; set-up: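 grade of growth control; 5 = at least 90%; 4 = 70 to 90%; 3 = 50 to 70%; 2 = 30 to 50%; 1 = 10 to 30%; 0 = under 10%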
Outline: (§2)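 Test plants had been raised from seed for 2 weeks in a greenhouse, in soil-covered sand pots of 120 cm^2, and were returned there after spraying.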

pale smartweed (Po) [5] = assay: as above; set-up: scale not given here
Outline: as §2

[6] = tested on: common lambsquarters (Ch); assay: as above; set-up: scale not given here
Outline: as §2

rice flatsedge (Ci) = assay: as above; set-up: scale not given here
Outline: as §2

Diaitaria ciliaris (Di) = assay: as above; set-up: scale not given here
Outline: as §2

[7] = evaluated on the 21st day after application
[8] = 100 g of the active ingredient per 10 ares, evaluated on the 14th day after treatment
[9] = 100 g active ingredient per 10 ares, evaluated 14th day after treatment
[10] = 21st day after the application, index 0-5 of Table 47

| Structure (SMILES) | Phytotoxicity Gl (soybean (Gl); dose 6.3 g ai/10a) | Herbicidal effects Ec (barnyardgrass (Ec) [1]; [7]) | Herbicidal effects Po (pale smartweed (Po) [2]; [7]) | Herbicidal effects Ch [3, 7] | Herbicidal effects Am (slender amaranth (Am); [7]) | Herbicidal effects Ec (barnyardgrass (Ec) [4]; [8]) | Herbicidal effects Po (pale smartweed (Po) [5]; [8]) | Herbicidal effects Ch [6, 8] | Herbicidal effects Ci (rice flatsedge (Ci); [8]) | Herbicidal effects Di (Diaitaria ciliaris (Di); [8]) | Phytotoxicity Gl (soybean (Gl); dose 1.6 g ai/10a) | Herbicidal effects Ec (barnyardgrass (Ec) [4]; [9]) | Herbicidal effects Po (pale smartweed (Po) [5]; [9]) | Herbicidal effects Ch [6, 9] | Herbicidal effects Ci (rice flatsedge (Ci); [9]) | Herbicidal effects Di (Diaitaria ciliaris (Di); [9]) | Herbicidal effects Ec (barnyardgrass (Ec) [1]; [10]) | Herbicidal effects Po (pale smartweed (Po) [2]; [10]) | Herbicidal effects Ch [3, 10] | Herbicidal effects Am (slender amaranth (Am); [10]) |
| --- | --- | --- | --- | --- | --- | --- | --- | --- | --- | --- | --- | --- | --- | --- | --- | --- | --- | --- | --- | --- |
| C=CC(C)Oc1cc(-c2ccc(C(F)(F)F)n(C)c2=O)c(F)cc1Cl (stereo not shown) [Compound 1-182] | 1 | 5 | 5 | 5 | 5 | 5 | 5 | 5 | 5 | 5 |  |  |  |  |  |  |  |  |  |  |
| C#CCN1C(=O)COc2cc(F)c(-c3ccc(C(F)(F)F)n(C)c3=O)cc21 [Compound No. 2-1, 3-[7-fluoro-2,3-dihydro-4-(2-propynyl)-1,4-benzoxazin-3-on-6-yl]-1-methyl-6-trifluoromethyl-2(1H)-pyridone] | 1 | 5 | 5 | 5 | 5 |  |  |  |  |  | 0 | 5 | 5 | 5 | 5 | 5 |  |  |  |  |
| C#CCN1C(=O)COc2cc(F)c(-c3cn(C)c(C(F)(F)F)cc3=O)cc21 [Compound 7-1] | 1 | 5 | 5 | 5 | 5 |  |  |  |  |  |  | 5 | 5 | 5 | 5 | 5 |  |  |  |  |
| CC(C)Sc1cc(-c2ccc(C(F)(F)F)n(C)c2=O)c(F)cc1Cl [1-43] | 1 |  |  |  |  | 5 | 5 | 5 | 5 | 5 |  |  |  |  |  |  | 5 | 5 | 5 | 5 |
| CON=Cc1cc(-c2ccc(C(F)(F)F)n(C)c2=O)c(F)cc1Cl [Compound No. 1-72, 5-(1-methyl-6-trifluoromethyl-2(1H)-pyridon-3-yl)-2-chloro-4-fluorobenzaldehydeoxime-O-methyl ether] | 2 |  |  |  |  | 5 | 5 | 5 | 5 | 5 | 1 |  |  |  |  |  | 5 | 5 | 5 | 5 |
| CCCc1cc2c(-c3ccc(C(F)(F)F)n(C)c3=O)c(F)cc(Cl)c2o1 [Compound 4-3] | 1 | 5 | 5 | 5 | 5 |  |  |  |  |  |  | 5 | 5 | 5 | 5 | 5 |  |  |  |  |
| CCON=Cc1cc(-c2ccc(C(F)(F)F)n(C)c2=O)c(F)cc1Cl [Compound 1-187] | 1 | 5 | 5 | 5 | 5 |  |  |  |  |  |  | 5 | 5 | 5 | 5 | 5 |  |  |  |  |
| C=CC(O)c1cc(-c2ccc(C(F)(F)F)n(C)c2=O)c(F)cc1Cl (stereo not shown) [Compound 1-197] | 1 | 5 | 5 | 5 | 5 |  |  |  |  |  |  | 5 | 5 | 5 | 5 | 5 |  |  |  |  |
| Cn1cc(-c2cc(Oc3ccccc3)c(Cl)cc2F)c(=O)cc1C(F)(F)F [Compound No. 6-19, 5-(4-chloro-2-fluoro-5-phenoxyphenyl)-1-methyl-2-trifluoromethyl-4(1H)-pyridone] | 0 | 5 | 5 | 5 | 5 |  |  |  |  |  | 0 | 5 | 5 | 5 | 5 | 5 |  |  |  |  |
| COCSc1cc(-c2ccc(C(F)(F)F)n(C)c2=O)c(F)cc1Cl [1-91] | 1 |  |  |  |  | 5 | 5 | 5 | 5 | 5 | 0 |  |  |  |  |  | 5 | 5 | 5 | 5 |
| Cn1c(C(F)(F)F)ccc(-c2cc(OCC#N)c(Cl)cc2F)c1=O [1-25] | 2 |  |  |  |  | 5 | 5 | 5 | 5 | 5 |  |  |  |  |  |  | 5 | 5 | 5 | 5 |
| C#CC(O)c1cc(-c2ccc(C(F)(F)F)n(C)c2=O)c(F)cc1Cl (stereo not shown) [Compound 1-202] |  | 5 | 5 | 5 | 5 |  |  |  |  |  | 2 | 5 | 5 | 5 | 5 | 5 |  |  |  |  |
